IC50, response vs control in vivo and MIC data for four molecules are collected here from patent US4626540A, “Substituted 1-amino-4-nitro-acridinones and methods of treating bacterial infections and leukemia with them” (Warner-Lambert Company, priority 1984, dated 1986).

In assay [1] the test system is L1210 murine leukemia cell lines. As to the kind of experiment: In vitro antitumor screening (PDC test), L1210 murine leukemia cell growth. The settings on record: Mus musculus, 72 h; L1210 cells, 37° C., three days; value is ID50 multiplied by 10^7. Type of assay: cell-based.
In assay [2] the test system is HCT-8 cells. As to the kind of experiment: In vitro proliferating human colon adenocarcinoma (HCA) cell screen, HCT-8 cells.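 Also: ID50 is the molar concentration giving 50% growth inhibition.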 Type of assay: cell-based. To be noted: 60-65 hours at 37° C., value is ID50 multiplied by 10^7. The method, then: One test protocol is the in vitro proliferating human colon adenocarcinoma (HCA) cell screen. In this test, HCT-8 cells (HCA cell line received from Yale University) are trypsinized using trypsin-EDTA. A single cell suspension is achieved by passing the cells through a 26-gauge needle with a 20-cc syringe. A cell suspension is prepared using RPMI 1640+10% FCS+50 μg/ml gentamicin sulfate with a cell concentration of approximately 5,000 cells/ml. The cell suspension is dispensed in Linbro 24-well plates; 1 ml/well. The plates are incubated for approximately 48 hours at 37° C. in a 5% CO2 atmosphere. At this time test compounds are added in the appropriate concentration. Ten μl of the appropriate dilution is added to each well for a titration test. The plates are reincubated an additional 60-65 hours at 37° C. in a 5% CO2 atmosphere. The cells are lysed using a mix of cationic surfactant, glacial acetic acid and sodium chloride. Two ml of the lysed cell suspension from each well is added to 8 ml of diluent. The number of nuclei is determined using a Coulter counter (ZBI model), and a percent growth for each drug concentration is calculated.

In assay [3] the test system is lymphocytic leukemia P388. As to the kind of experiment: In vivo lymphocytic leukemia P388 test. Also noted: species or system CD2 F1 mice. The settings on record: Mus musculus, P388, ip, intraperitoneal, once daily for five days, survival time treated/control, read-out: P388 in vivo T/C × 100. An outline of the steps: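 CD2 F1 mice (six or seven per group) received P388 leukemia cells intraperitoneally in diluted ascitic fluid, then compound i.p. once daily for five consecutive days at various doses. Survival was followed for 30 days; activity expressed as treated/control survival time ratio ×100, efficacy criterion ≥125.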

The test system of assay [4] is Escherichia coli. As to the kind of experiment: In vitro antibacterial (ABMF) microdilution test, Escherichia coli. Type of assay: cell-based. The settings on record: Mueller-Hinton broth, 37° C., 16-24 hours, read-out: ABMF minimal inhibitory conc, E. coli. In a few lines:
(§1)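 Susceptibility was measured by microdilution in Mueller-Hinton broth, with the organism grown against serial compound concentrations from 1000 to 0.46 micrograms per milliliter.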
Background: In broth dilution the organism is exposed to a series of concentrations in liquid medium.

Assay [5] has as its system Corynebacterium Sp. ATCC 21698. As to the kind of experiment: In vitro antibacterial (ABMF) microdilution test, Corynebacterium Sp. In kind it is cell-based. The settings on record: ATCC21698, Mueller-Hinton broth, 37° C., 16-24 hours, read-out: ABMF minimal inhibitory conc, Coryn. Species. In a few lines: as §1
Assay [6] has as its system Branhamella catarrhalis. As to the kind of experiment: In vitro antibacterial (ABMF) microdilution test, Branhamella catarrhalis. Type of assay: cell-based. To be noted: Moraxella catarrhalis; Mueller-Hinton broth, 37° C., 16-24 hours; read-out: ABMF minimal inhibitory conc, B. cat. In a few lines: as §1
Assay [7] relates to Streptococcus pneumoniae. As to the kind of experiment: In vitro antibacterial (ABMF) microdilution test, Streptococcus pneumoniae. In kind it is cell-based. To be noted: Mueller-Hinton broth, 37° C., 16-24 hours, read-out: ABMF minimal inhibitory conc, S. pneu. In a few lines: as §1
Assay [8] has as its system Bacillus cereus. As to the kind of experiment: In vitro antibacterial (ABMF) microdilution test, Bacillus cereus. Type of assay: cell-based. To be noted: Mueller-Hinton broth, 37° C., 16-24 hours, read-out: ABMF minimal inhibitory conc, B. cer. In a few lines: as §1

Molecules are shown by their SMILES. Where only a bound is given, the exact number is not on record here.

As to `CCCCOc1ccc2[nH]c3c([N+](=O)[O-])ccc(NCCCN(C)C)c3c(=O)c2c1.CS(=O)(=O)O` [Example 24, 7-Butoxy-1-[[3-(dimethylamino)propyl]amino]-4-nitro-9(10H)-acridinone, methanesulfonate], the figures for the IC50 in assay [1] and in assay [2] were 350 nM and 370 nM, respectively. Besides, the response vs control in vivo at 12.5 mg/kg in assay [3] stood at 123%. The response vs control in vivo at 25 mg/kg in assay [3] worked out at 151%. In addition, the MIC in assay [4] is 12.3 µg/mL; in assay [5] it was 4.1 µg/mL; in assay [6], 12.3 µg/mL; in assay [7], 1.4 µg/mL; in assay [8], 111 µg/mL.

As to `CCN(CC)CCNc1ccc([N+](=O)[O-])c2[nH]c3ccc(O)cc3c(=O)c12` [Example 2, 1-[[2-(Diethylamino)ethyl]amino]-7-hydroxy-4-nitro-9(10H)-acridinone, methanesulfonate (1:1), hydrate (1:1)], the IC50 (usually the point on the concentration scale where inhibition reaches its midpoint) in assay [1] turned out to be 6.7 nM; in assay [2], 4.5 nM. Besides, the response vs control in vivo at 12.5 mg/kg in assay [3] came out at 250%. The MIC in assay [4], in assay [5], in assay [6], in assay [7] and in assay [8] was less than 0.46 µg/mL throughout.

With `CN(C)CCNc1ccc([N+](=O)[O-])c2[nH]c3ccccc3c(=O)c12` [Example 8, 1-[[2-(Dimethylamino)ethyl]amino]-4-nitro-9(10H)-acridinone, methanesulfonate (1:1), hemihydrate], the IC50 in assay [1] worked out at 390 nM; in assay [2], 340 nM. Further, the response vs control in vivo at 25 mg/kg in assay [3] amounted to 142%. In assay [3] (50 mg/kg), the response vs control in vivo at 50 mg/kg turned out to be 185%. Moreover, the MIC in assay [4] is 1.4 µg/mL; in assay [5], less than 0.46 µg/mL; in assay [6], less than 0.46 µg/mL; in assay [7] it was less than 0.46 µg/mL; in assay [8], 4.1 µg/mL.

For the molecule `CCCCOc1ccc2[nH]c3c([N+](=O)[O-])ccc(NCCNCCO)c3c(=O)c2c1` [Example 18, 7-Butoxy-1-[[2-[(2-hydroxyethyl)amino]ethyl]amino]-4-nitro-9(10H)-acridinone, methanesulfonate, 0.3 hydrate], the IC50 in assay [1] came out at 350 nM; in assay [2], 400 nM. Further, the response vs control in vivo at 12.5 mg/kg in assay [3] was 121%. For the same molecule, in assay [3], the response vs control in vivo at 25 mg/kg turned out to be 136%. For the same molecule, the MIC was 111 µg/mL in assay [4]; 37 µg/mL in assay [5]; 333 µg/mL in assay [6]; 37 µg/mL in assay [7]; 333 µg/mL in assay [8].
